Experimental data as given in patent US20250221957A1, “PS[…] AND THEIR USE FOR TREATING […] AND NE[…] DISORDERS” (Transcend Therapeutics, Inc., priority 2021, published 2025).
Read-outs that look alike come from different tables or passages of the source. Marks after values point to notes of the source that are not given here.

Tests used:
[1] = tested on: patients with a diagnosis of PTSD or MDD; healthy subjects; experiment: Methylone case series (Example 4, Cohorts 1 and 2): CGI-S/CGI-I and safety events; assay type: in vivo, human
Method: CGI-S scale was also evaluated in a subset of patients from Cohort 2 post-treatment. Cohort 2 was evaluated for any observed or reported safety events following a single dosing session.
Clinical Global Impressions (CGI) scale includes 2 components: CGI-S(“severity”) and CGI-I (“improvement”).
• 1=Normal—not at all ill, symptoms of disorder not present past seven days • 2=Borderline mentally ill-subtle or suspected pathology • 3=Mildly ill-clearly established symptoms with minimal, if any, distress or difficulty in social and occupational function • 4=Moderately ill-overt symptoms causing noticeable, but modest, functional impairment or distress; symptom level may warrant medication • 5=Markedly ill-intrusive symptoms that distinctly impair social/occupational function or cause intrusive levels of distress • 6=Severely ill-disruptive pathology, behavior and function are frequently influenced by symptoms, may require assistance from others • 7=Among the most extremely ill patients-pathology drastically interferes in many life functions; may be hospitalized
Only sessions that included methylone dosing were counted as dosing sessions.
Single sessions occurred for 8 of the 28 cases with no booster in two of these cases. In the remainder of the cases, multiple sessions occurred, and booster doses were used in all or some of the remaining patients ([…]) with multiple booster doses used in some or all of the sessions in 15 patients.

[2] = biological target: dopamine (DA) transporter (Homo sapiens, UniProt Q01959); experiment: Radioligand binding, [3H] WIN35428
[3] = biological target: norepinephrine (NE) transporter (Homo sapiens, UniProt P23975); experiment: Radioligand binding, [3H] nisoxetine
mice = experiment: Fear extinction paradigm, mouse model of PTSD; assay type: in vivo
From the text: (FIG. 9A) Schematic of experimental design. A single CS-US (tone-shock) pairing on day 1 was followed by 6 CS presentations in a novel context (context B). […] On day 3, the time spent freezing to the CS was quantified. […] (FIG. 9C) No locomotor changes were observed on day 3 (t(26)=1.073, p>0.05). Data are mean +/− SEM.
FIGS. 10A-10B: MBDB improves fear extinction in a mouse model of PTSD. A single CS-US (tone-shock) pairing on day 1 was followed by 6 conditioned stimulus (CS) presentations in a novel context (context B). MBDB or saline vehicle was injected 30 min prior to extinction training on day 2. The time spent freezing to the CS was quantified on […]. […] Data are mean +/− SEM. N=10 for MBDB group (5 mg/kg, IP) and N=16 for saline control group. **p<0.01 vs. vehicle control group.
Effective PTSD treatments facilitate the disassociation between a traumatic memory and the patient's fear response, making cues for the traumatic memory evoke less of a fear response. This is modeled in the mouse fear extinction paradigm (see FIG. 9A) which takes place over 3 days. On day 1 (fear conditioning), mice are trained to acquire a “traumatic memory,” namely associating the conditioned stimulus (CS, tone) to the unconditioned stimulus (US, foot shock). On day 2 (extinction training), they are trained to forget the traumatic memory association by presenting the CS 6 times (with no US) in a novel environment. On day 3 (extinction recall), the mice are “asked” if that tone (CS) still elicits a fearful response, as measured by the time spent freezing when the tone is presented. Less time freezing means better extinction recall. Drugs that improve extinction recall reduce freezing time on day 3, and, therefore, show potential as a PTSD treatment.

rats = experiment: Open field test (OFT); assay type: in vivo, rat; details: single methylone dose 5 or 15 mg/kg IP, 30 minutes before testing
Method: Data are mean +/− SEM. N=6 per group. * p<0.05; **p<0.01 vs. vehicle control group.
Method: Consecutive beam breaks and/or video-tracking of time spent in the center versus periphery of the open field are measured. Also measured are parameters such as distance traveled and ambulatory activity (horizontal and vertical) for the duration of the test session.
The open field test (OFT) capitalizes on a rodent's innate fear of open spaces to assess anxiety-like behavior. More time spent in the center of an open field reflects an anxiolytic (anti-anxiety) effect.

[4] = biological target: vesicular monoamine transporter 2 (VMAT2) (Homo sapiens, UniProt Q05940); details: cited from earlier work
[5] = cited from earlier work
[6] = rats, intraperitoneal administration

vesicular monoamine transporter 2 (VMAT2), sequence (Q05940 whole entry, species assumed): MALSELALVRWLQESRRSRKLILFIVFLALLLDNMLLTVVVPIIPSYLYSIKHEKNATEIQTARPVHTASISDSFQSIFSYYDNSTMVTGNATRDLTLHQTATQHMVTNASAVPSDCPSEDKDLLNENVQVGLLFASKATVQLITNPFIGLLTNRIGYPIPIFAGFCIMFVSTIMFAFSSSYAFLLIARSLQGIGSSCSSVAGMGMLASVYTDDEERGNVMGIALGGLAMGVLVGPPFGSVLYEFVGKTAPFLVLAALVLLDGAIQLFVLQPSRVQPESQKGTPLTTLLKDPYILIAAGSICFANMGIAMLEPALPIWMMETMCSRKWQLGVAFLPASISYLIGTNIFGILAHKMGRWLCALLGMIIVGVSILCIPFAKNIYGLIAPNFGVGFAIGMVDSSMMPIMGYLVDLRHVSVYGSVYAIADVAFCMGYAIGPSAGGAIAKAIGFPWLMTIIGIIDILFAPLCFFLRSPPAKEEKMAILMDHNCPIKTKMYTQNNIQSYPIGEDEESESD
dopamine (DA) transporter, sequence (Q01959 whole entry): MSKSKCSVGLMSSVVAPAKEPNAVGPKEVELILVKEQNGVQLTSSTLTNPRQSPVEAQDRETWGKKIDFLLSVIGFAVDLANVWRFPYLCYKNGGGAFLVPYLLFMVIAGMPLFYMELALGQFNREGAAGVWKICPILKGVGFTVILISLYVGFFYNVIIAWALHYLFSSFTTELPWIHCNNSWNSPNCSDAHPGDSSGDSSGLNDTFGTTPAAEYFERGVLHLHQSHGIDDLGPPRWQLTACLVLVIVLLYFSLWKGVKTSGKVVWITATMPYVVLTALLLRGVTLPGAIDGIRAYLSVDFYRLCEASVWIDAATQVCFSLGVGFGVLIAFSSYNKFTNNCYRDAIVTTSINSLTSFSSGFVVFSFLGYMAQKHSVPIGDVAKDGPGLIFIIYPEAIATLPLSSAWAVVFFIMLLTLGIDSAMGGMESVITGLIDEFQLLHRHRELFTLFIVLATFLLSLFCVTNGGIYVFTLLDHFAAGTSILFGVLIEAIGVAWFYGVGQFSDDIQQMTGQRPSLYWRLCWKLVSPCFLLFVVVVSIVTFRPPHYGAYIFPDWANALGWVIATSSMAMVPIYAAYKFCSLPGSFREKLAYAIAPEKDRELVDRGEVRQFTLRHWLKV
norepinephrine (NE) transporter, sequence (P23975 whole entry): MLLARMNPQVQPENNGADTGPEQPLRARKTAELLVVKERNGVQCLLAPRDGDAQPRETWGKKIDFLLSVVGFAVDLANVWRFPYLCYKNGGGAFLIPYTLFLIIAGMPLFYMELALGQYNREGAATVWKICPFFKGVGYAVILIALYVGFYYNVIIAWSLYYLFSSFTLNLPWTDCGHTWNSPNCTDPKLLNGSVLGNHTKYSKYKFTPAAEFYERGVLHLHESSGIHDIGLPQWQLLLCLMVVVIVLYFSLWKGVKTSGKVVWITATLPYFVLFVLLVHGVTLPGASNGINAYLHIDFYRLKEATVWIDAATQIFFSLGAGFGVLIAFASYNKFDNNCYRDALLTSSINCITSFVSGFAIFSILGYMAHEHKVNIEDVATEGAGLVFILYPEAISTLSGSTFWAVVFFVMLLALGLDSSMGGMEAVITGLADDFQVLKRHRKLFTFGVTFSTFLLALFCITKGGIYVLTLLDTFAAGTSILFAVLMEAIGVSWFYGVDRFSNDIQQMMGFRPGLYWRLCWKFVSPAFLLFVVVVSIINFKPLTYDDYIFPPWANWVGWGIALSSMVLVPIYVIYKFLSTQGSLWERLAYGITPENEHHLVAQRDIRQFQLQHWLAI

CNC(C)C(=O)c1ccc2c(c1)OCO2 (centres unmarked) [methylone, 3,4-methylenedioxy-N-methylcathinone]
Number of cases (N = 28), Magnitude of Improvement [1]: 0
adverse effects or after-effects ([1]; Cohort 1, 4 healthy subjects, single session, total dose 790 or 870 mg oral): no adverse effects or after-effects were observed or reported
cases in which methylone dosing was well tolerated and no safety events were reported ([1]; Cohort 2, 25 of 28 cases): 89.3%
patients with initial improvement with the first methylone session ([1]; Cohort 2, 25 of 28 patients): ~90%
patients achieving CGI-I 1 or 2 ([1]; Cohort 2 MDD subset, 8/8 patients): 100%
patients achieving CGI-I 1 or 2 ([1]; Cohort 2 PTSD subset, 16/20 patients): 80%
patients achieving CGI-I 1 or 2 (much improved or very much improved) ([1]; Cohort 2 overall, N=28, oral methylone, single or multiple sessions, compared to baseline CGI-S): 86%
cases reporting a durable effect ([1]; MDD subset of Cohort 2, 6 narratives with durability information): 5
cases with durable effect of 6 months or greater ([1]; PTSD subset of Cohort 2): 12
case narratives reporting a durable effect ([1]; PTSD subset of Cohort 2, 16 narratives with durability information): 15
patients with magnitude of improvement CGI 1 or 2 ([1]; PTSD subset, of 5 patients with concomitant SSRIs or other antidepressant classes): 4
Number of cases (N = 28), Magnitude of Improvement ([1]; highest observed CGI-I = 1 (very much improved), Cohort 2): 11*
Number of cases (N = 28), Magnitude of Improvement ([1]; highest observed CGI-I = 2 (much improved), Cohort 2): 13
Number of cases (N = 28), Magnitude of Improvement ([1]; highest observed CGI-I = 3 (minimally improved), Cohort 2): 4
Number of cases (N = 28), Magnitude of Improvement ([1]; highest observed CGI-I = 4 (no change), Cohort 2): 0
Number of cases (N = 28), Magnitude of Improvement ([1]; highest observed CGI-I = 5 (minimally worse), Cohort 2): 0
Number of cases (N = 28), Magnitude of Improvement ([1]; highest observed CGI-I = 6 (much worse), Cohort 2): 0
binding at the DA transporter [2]: confirmed methylone binding
binding at the NE transporter [3]: confirmed methylone binding
enhancement of fear extinction recall compared to saline controls (reduced freezing on day 3) (mice; methylone 30 mg/kg IP 30 min prior to extinction training): ~60%
locomotion during the testing session (mice; methylone 30 mg/kg IP, day 3): no differences between groups
time spent in the center of the open field compared to vehicle (rats): significantly increases
affinity for VMAT2 lower than that of MDMA [4]: about 13 ×
half-life shorter than MDMA ([5]; rat, in vivo): > 50%
half-life [5, 6]: 1 to 2 h
time of peak brain and serum concentration [5, 6]: 15 to 30 min
